In PubChem BioAssay (NCI):
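Tested at 5 concentrations; 48 h exposure; 96-well plates; endpoints linearly interpolated, else capped at highest concentration. At the GI50, growth is halved. The concentration for full growth arrest is given as TGI.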 Where a SMILES comes first, the peptide text is derived from it. The star is where a group is joined. Cbz = O=C(OCc1ccccc1)*

Tests used:
Test in all cases: inhibition of tumour cell growth, NCI panel, 48 h
[1] = tested on: A498 renal
[2] = tested on: HT29 colon
[3] = tested on: NCI/ADR-RES ovarian
[4] = tested on: OVCAR-4 ovarian
[5] = tested on: PC-3 prostate
[6] = tested on: RPMI-8226 leukemia
[7] = tested on: SK-MEL-5 melanoma
[8] = tested on: UO-31 renal
[9] = tested on: MOLT-4 leukemia

SMILES | TGI [1] [µM] | TGI [2] [µM] | TGI [3] [µM] | TGI [4] [µM] | TGI [5] [µM] | TGI [6] [µM] | TGI [7] [µM] | TGI [8] [µM] | TGI [9] [µM] | GI50 [1] [µM] | GI50 [9] [µM] | GI50 [3] [µM] | GI50 [4] [µM] | GI50 [6] [µM] | GI50 [7] [µM] | GI50 [8] [µM]
Cc1nc2cccc([N+](=O)[O-])c2n1CCCN(C)C | > 100 | > 100 | > 100 | > 100 | > 100 | > 100 | > 100 | > 100 |  |  |  |  |  |  |  | 
N=C(N)SCc1ccc(N=C=S)cc1 | 26.9 | 40.3 | 43 | 27.4 | 30.1 | > 100 | 27.2 | 25 | > 100 |  |  |  |  |  |  | 
NC(N)=NS(=O)(=O)c1ccc(NC(=O)c2ccc3nc4ccccc4c(N)c3c2)cc1 |  | > 100 | > 100 | > 100 | > 100 | > 100 | > 100 | > 100 | > 100 |  |  |  |  |  |  | 
COc1cccc(C=C2N=C(C)N(n3c(-c4ccccc4)nc4ccccc4c3=O)C2=O)c1 | > 100 | > 100 |  |  | > 100 | > 100 | > 100 | > 100 | > 100 |  |  |  |  |  |  | 
COc1ccc(-c2cc(-c3ccccc3)nc3c2CC(=O)Nc2ccccc2-3)cc1OC | 50.5 | > 100 | > 100 | > 100 | > 100 | > 100 | > 100 | > 100 | > 100 |  |  |  |  |  |  | 
CCc1c(C)c2ccc(OCC(=O)N=Nc3c(O)[nH]c4ccccc34)c(C)c2oc1=O | > 33.3 |  | > 33.3 | 1.86 |  | 2.27 | > 33.3 | > 33.3 | > 33.3 | > 33.3 | 1.15 | > 33.3 | 0.788 | 0.936 | 1.06 | > 33.3
CCOC(=O)c1cn2c(ccc3sc4ccccc4c(=O)c32)n1 | > 100 | > 100 | > 100 |  | > 100 | > 100 | > 100 | > 100 | > 100 |  |  |  |  |  |  | 
CC(C)(O)CCc1ccc(O)c2c(=O)c3c(O)c4c(cc3oc12)O[C@H]1OC=C[C@@]41O |  | > 100 | 0.298 | 0.222 | > 35.1 | > 33.6 |  | 0.414 | 0.422 |  |  |  |  |  |  | 
O=C1CCCC2=C1CC1=C(CCCC1=O)N2c1cccc([N+](=O)[O-])c1 | > 100 | > 100 | > 100 | > 100 | > 100 | > 100 | > 100 | > 100 | > 100 |  |  |  |  |  |  | 
Cc1ccc(NC(=O)/C(=N\NC(N)=O)c2c(O)c3ccccc3[nH]c2=O)cc1 | > 100 | > 100 | > 100 | > 100 | > 100 | > 100 | > 100 | > 100 | > 100 |  |  |  |  |  |  | 
Cc1nc2ccccc2n1Cc1nnc2n1N=C(c1ccccc1)CS2 | > 100 | > 100 | > 100 | > 100 | 53.6 | > 100 | > 100 | > 100 | > 100 |  |  |  |  |  |  | 
COc1ccc(/C=C2\CN(C)CC3C2=NN(c2ccccc2)C3c2ccc(OC)cc2)cc1 (configuration not stated) | > 100 | > 100 | > 100 | > 100 |  | > 100 | > 100 | > 100 | > 100 |  |  |  |  |  |  | 
Cc1nnc([C@@]2(C)CC[C@H]3[C@@H](CCC4=CC(=O)CC[C@@]43C)[C@@H]2CC#N)o1 | > 100 | > 100 | > 100 | > 100 | > 100 | > 100 | > 100 | > 100 | > 100 |  |  |  |  |  |  | 
CCOC(=O)CNC(=O)C(C)NC(=O)C(NC(=O)OCc1ccccc1)C(C)C (stereo not drawn) (Cbz-Val-Ala-Gly-OEt; configuration not given here) |  | > 100 | > 100 |  | > 100 | > 100 | > 100 | > 100 | > 100 |  |  |  |  |  |  | 
CCn1c(=O)c2c3cc(OC(C)=O)ccc3oc2c2ccc(OC(C)=O)cc21 | 83 | > 100 | > 100 | > 100 | > 100 |  | > 100 | 83 | > 100 |  |  |  |  |  |  | 
CN(C)/C=C/c1c2c(nc3ccccc13)C(=O)c1ccccc1C2=O | 9.24 | 4.85 | 5.6 | 5.42 | 3.77 | 3.49 | 0.536 | 7.2 | 6.32 |  |  |  |  |  |  | 
O[C@H]1[C@H](O)[C@@H](Cn2nnc(-c3ccccc3)c2-c2ccccc2)OCO[C@@H]1Cn1nnc(-c2ccccc2)c1-c1ccccc1 | 16 | 3.61 | > 42.4 | 26.9 | 8.83 | 5.79 | 10.2 | 17 | > 30.4 |  |  |  |  |  |  | 
Nc1c2c(nc3ccccc13)CCCc1ccccc1-2 | 22 | 22.5 | 69.7 | 84.8 | 40.5 | 30.4 | 21 | 26.3 | > 100 |  |  |  |  |  |  | 
C[N+](C)(C)C(C1=CCCC1=O)c1ccccc1 (configuration not stated) | > 100 | 56 | > 100 | > 100 | > 100 | 44.2 | > 100 | > 100 | 58.3 |  |  |  |  |  |  | 
Cc1ccc([N+](=O)[O-])cc1S(=O)(=O)Nc1ccc(C2=NN(S(=O)(=O)c3cc([N+](=O)[O-])ccc3C)C(c3ccco3)C2)cc1 (configuration not stated) |  | > 100 | > 100 | > 100 | > 100 | > 100 | > 100 | > 100 | > 100 |  |  |  |  |  |  | 
Cc1ccc(S(=O)(=O)N2CCCSCCN(S(=O)(=O)c3ccc(C)cc3)CCCSCC2)cc1 | > 100 | > 100 | > 100 | > 100 |  | > 100 | > 100 | > 100 | > 100 |  |  |  |  |  |  | 
COc1cc2cc(C(=O)N3CC(CCl)c4c3cc(O)c3ccccc43)[nH]c2c(OC)c1OC (configuration not stated) | 0.82 | > 50 | > 50 |  |  | > 50 | 0.00656 | > 50 | 0.153 |  |  |  |  |  |  | 
O=P1(Oc2ccccc2)NCc2ncccc2O1 (configuration not stated) | > 100 | > 100 | > 100 | > 100 | > 100 | > 100 | > 100 | > 100 | > 100 |  |  |  |  |  |  | 
